Measured values taken from PubChem BioAssay AID179 (DTP/NCI, 2004).
The source made the active and inactive calls.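 Rule for the calls: active = compounds giving half or more protection of infected cells from virus-caused growth loss, again on retest; inactive = the rest.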

Test system: CEM cells HIV-1 protection, formazan growth assay
Assay: NCI AIDS Antiviral Assay
Details: for IC50: measured here: growth of uninfected CEM cells
Outline: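 Steps: treat uninfected and HIV-1-infected human CEM cells at five drug levels; quantify growth by soluble formazan; retest any compound reaching 50% protection; classify actives from the retest.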

Row | SMILES | EC50 | IC50 | outcome
1 | COC(=O)c1c(/C(=N/Nc2ccc([N+](=O)[O-])cc2)[N+](=O)[O-])ssc1=N | > 200 µM | 10 µM | –
2 | CC1=C(C(=O)Nc2ccccc2)C(c2ccc(C)o2)C(C#N)=C(SCc2ccccc2)N1 (stereo not drawn) | > 200 µM | 24 µM | –
3 | C[N+]1(CCNP(=S)(NCC[N+]2(C)Cc3c(ccc4c3OCO4)C3C2c2cc4c(cc2C[C@@H]3O)OCO4)NCC[N+]2(C)Cc3c(ccc4c3OCO4)C3C2c2cc4c(cc2C[C@@H]3O)OCO4)Cc2c(ccc3c2OCO3)C2C1c1cc3c(cc1C[C@H]2O)OCO3 (stereo partly drawn) | > 380 µM | 4.68 µM | –
4 | CCCCN(CCCC)CCCNc1c2c(nc3cc(Cl)ccc13)CCCC2 | > 200 µM | 38.9 µM | –
5 | CCOC(=O)C(NC(=O)CC)(Nc1ccccc1OC)C(F)(F)F (stereo not drawn) | > 200 µM | > 200 µM | –
6 | N#CC1CCCCCCCCCCC(=O)N(CCCl)C1=O (stereo not drawn) | > 60.3 µM | > 60.3 µM | –
7 | Cn1c(=O)n2n(c1=O)C1C3C4C3C3C5(COCC135)C42 (stereo not drawn) | > 200 µM | > 200 µM | –
8 | NC(=O)c1ccc2c(c1)-c1nc-2nc2[n-]c(nc3nc(nc4[n-]c(n1)c1ccc(C(N)=O)cc41)-c1ccc(C(N)=O)cc1-3)c1ccc(C(N)=O)cc21.[Co+2] | > 9.77 µM | 6.61 µM | –
9 | C=C1C[C@@H]2O[C@H]3[C@H]4[C@@H](C[C@@H](C)[C@@H](OC(C)=O)[C@H]42)[C@@H](C)CO[C@@]3(C)[C@H](OC(=O)CCCCCCC)C[C@H]1O | > 200 µM | 11 µM | –
10 | Cc1c2c(cn1C)NC(=O)CN=C2c1ccccc1 | > 200 µM | > 200 µM | –
11 | COC(=O)C1CC2(c3ccccc3)C(=O)c3ccccc3N2O1 (stereo not drawn) | – | – | inactive
12 | Cn1c2ccccc2c2nnc(N/N=C/c3cccs3)nc21 | > 200 µM | > 200 µM | –
13 | COC(=O)N/N=C(\c1ccccc1)c1ccc(OC)cc1 | > 200 µM | 112 µM | –
14 | CCOC(=O)/C=C/c1ccc(F)cc1 | > 97.7 µM | > 97.7 µM | –
15 | CC(C)N1C(=O)C(C#N)=C(c2ccccc2)SC1c1ccccc1 (stereo not drawn) | > 30.2 µM | > 30.2 µM | –
16 | Cc1cc(=O)[nH]c(-n2[nH]c(C)c(CCO)c2=O)n1 | > 200 µM | > 200 µM | –
17 | CCOC(=O)c1nnsc1NN=C(C)C | > 200 µM | > 200 µM | –
18 | O=c1cc(-c2ccccc2)nc(-n2[nH]c3c(c2=O)CCCC3)[nH]1 | > 50.1 µM | 1.29 µM | –
19 | C=CC(c1ccccc1)[C@@]1(OC(C)=O)C(=O)C(=O)OC1C1COC(C)(C)O1 (stereo partly drawn) | > 200 µM | 6.46 µM | –
20 | Cc1ccccc1[P+](Cc1ccccc1)(c1ccccc1C)c1ccccc1C | > 20 µM | 1.07 µM | –
21 | COc1ccc(OC)c(/C=C2/C(=O)N=C(NC(C)=O)N2C)c1 | > 200 µM | > 200 µM | –
22 | COC(=O)C(=O)C(C(=O)C(=O)Nc1cc([N+](=O)[O-])ccc1C#N)c1nc2ccccc2[nH]c1=O (stereo not drawn) | – | – | inactive

Row | SMILES | EC50 | IC50 | outcome
23 | COc1ccc2c(CCNC(=O)/C=C/c3ccccc3)c(C(C)=O)[nH]c2c1[N+](=O)[O-] | – | – | inactive
24 | CC1CNC(c2ccc(NC(=O)Nc3cc(C(=O)Nc4ccc(C5=NC(C)CN5)cc4)ccc3C(=O)Nc3ccc(C4=NC(C)CN4)cc3)cc2)=N1 (stereo not drawn) | > 100 µM | > 100 µM | –
25 | O=C(NO)Nc1ccc(Cl)c(Cl)c1 | – | 56.2 µM | inactive
26 | O=C(Cc1ccccc1)N/N=C(/c1nc2ccc([N+](=O)[O-])cc2[nH]c1=O)C(O)c1ccc(C(O)/C(=N/NC(=O)Cc2ccccc2)c2nc3ccc([N+](=O)[O-])cc3[nH]c2=O)cc1 (stereo not drawn) | > 155 µM | 52.5 µM | –
27 | Cn1nc2ccccc2cc1=O | > 1550 µM | 661 µM | –
28 | Cc1cn(C2CC(Sc3ccccc3)C(CO)O2)c(=O)[nH]c1=O (stereo not drawn) | > 200 µM | > 200 µM | –
29 | c1ccc(C2=NOC3COc4ccccc4OCC23)cc1 (stereo not drawn) | > 93.3 µM | > 93.3 µM | –
30 | Cc1ccc(S(=O)(=O)N/N=C2/C3CC4CCC2C4C3)cc1 (stereo not drawn) | > 200 µM | > 200 µM | –
31 | CC(=O)N=C1N(/C=C2\C(=O)Oc3ccccc3C2=O)C(=O)/C(=C/c2ccco2)N1C | > 200 µM | 69.2 µM | –
32 | O=C(O)C[C@@H](Cl)[C@H](NC(=O)OCc1ccccc1)C(=O)O | – | – | inactive
33 | CS(=O)(=O)N1CC(CCl)c2ccc(NO)cc21 (stereo not drawn) | > 200 µM | 3.72 µM | –
34 | Cc1cn(C2CC(O)C(COC(=O)CCCCCCCCCCN=[N+]=[N-])O2)c(=O)[nH]c1=O (stereo not drawn) | > 123 µM | 24 µM | –
35 | O=C(O)c1cc(N=Nc2ccc(N=Nc3ccc(S(=O)(=O)O)cc3)cc2)ccc1O | – | – | inactive
36 | COc1cc(/C=C(\C#N)C(=O)c2ccccc2)ccc1O | > 646 µM | 490 µM | –
37 | COc1cc(/C=C(\C)c2ccc3c(c2)OCO3)cc(OC)c1OC | > 41.7 µM | > 41.7 µM | –
38 | CN(C)/N=C(/CC(O)(C(F)(F)F)C(F)(F)F)c1ccc([N+](=O)[O-])cc1 | > 200 µM | 31.6 µM | –
39 | Cc1ccc([N+](=O)[O-])cc1NC(=O)/C(=N/NC(=S)NN)C1SC(=S)NC1=O (stereo not drawn) | > 302 µM | > 302 µM | –
40 | CC1=CC(c2ccccc2)n2c(nc3cc4ccccc4cc32)N1 (stereo not drawn) | > 200 µM | > 200 µM | –
41 | Cc1ccc(/C=C2\CN(C)CC3=C2NC(=S)NC3c2ccc(C)cc2)cc1 (stereo not drawn) | > 200 µM | 25.1 µM | –
42 | CCOC1(OCC)CC2C(=O)CCCC21OC(C)=O (stereo not drawn) | > 229 µM | 132 µM | –
43 | CC(C)CC1[C@@H](OCc2ccccc2)COS(=O)N1Cc1ccccc1 (stereo partly drawn) | > 200 µM | 26.3 µM | –
44 | O=C1NC2CCCCCC2C12CCCCC2 (stereo not drawn) | – | – | inactive

Row | SMILES | EC50 | IC50 | outcome
45 | CC1=NN(C(=O)c2ccccc2O)C(=O)/C1=C/c1ccco1 | > 87.1 µM | 0.603 µM | –
46 | Cc1ccc(SC2C(=O)C3CC(OCc4ccccc4)C2(C)C3(C)C)cc1 (stereo not drawn) | > 200 µM | > 200 µM | –
47 | CN1CC2=C(NC(=S)NC2c2ccccc2Cl)/C(=C/c2ccccc2Cl)C1 (stereo not drawn) | > 200 µM | 13.2 µM | –
48 | O=c1c(-c2ccccc2)c2oc(c1-c1ccccc1)CSCc1cccc(c1)CSC2 | > 1.7 µM | > 1.7 µM | –
49 | CCOC(=O)C(C)(C(=O)OCC)/C(Cl)=C\Cl | > 200 µM | > 200 µM | –
50 | c1ccc(C2OCC(OC3CCCCO3)CO2)cc1 (stereo not drawn) | > 200 µM | > 200 µM | –
51 | CC(=O)Oc1ccccc1/C=C/C(=O)/C=C/c1ccccc1OC(C)=O | > 20 µM | 2.14 µM | –
52 | Cc1ccc(/C(O)=C/c2nc3c(nc2NC24CC5CC(CC(C5)C2)C4)c(=O)oc2ccccc23)cc1 | > 2.19 µM | > 2.19 µM | –
53 | CCSC1=C(C#N)C2(CCCCC2)C2=C(CC(C)(C)CC2=O)N1 | > 200 µM | > 200 µM | –
54 | OC[C@H]1N=C(c2cccs2)OC1c1ccccc1 (stereo partly drawn) | > 200 µM | > 200 µM | –
55 | c1ccc2c(c1)nc(NC1CCCC1)c1[nH]c(C3CCCC3)nc12 | > 200 µM | 25.1 µM | –
56 | O=C1C2CCCC1C1/C(=[N+](/[O-])O)C=C([N+](=O)[O-])C2C1[N+](=O)[O-] (stereo not drawn) | > 234 µM | > 234 µM | –
57 | N/N=C(\c1ccccc1)c1ccc([N+](=O)[O-])cc1 | > 135 µM | 97.7 µM | –
58 | CC(=O)[O][Hg][CH2]C(O)Cn1c(=O)c2c(ncn2C)n(C)c1=O (stereo not drawn) | – | – | inactive
59 | CP(=O)(O)C(N)c1ccccc1 (stereo not drawn) | > 200 µM | > 200 µM | –
60 | COc1cc(C2c3cc4c(cc3[C@H](NS(C)(=O)=O)C3COC(=O)[C@H]23)OCO4)cc(OC)c1OC (stereo partly drawn) | – | – | inactive
61 | O=C(Nc1ccc(S(=O)(=O)Nc2ccc(N=Nc3ccccc3)cc2)cc1)C(SC1=NC=NC2=NC=NC21)SC1=NC=NC2=NC=NC21 (stereo not drawn) | > 20 µM | 3.16 µM | –
62 | COc1cccc(/C=N/[N-]C(N)=O)c1[O-].[Co+2].[OH3+] | > 126 µM | 61.7 µM | –
63 | COC1=C2C[C@@H](C)C[C@@H](OC)[C@@H](O)[C@H](C)/C=C(\C)[C@@H](OC(N)=O)[C@H](OC)/C=C\C=C(/C)C(=O)NC(=CC1=O)C2=O | > 1.15 µM | 0.0813 µM | –
64 | O=C(O)/C(Cl)=C(/Cl)C(=O)Nc1cc(Cl)ccc1Cl | – | – | inactive
65 | CC(NC(=O)C(=O)N/N=C1\CC(c2ccccc2)Sc2ccccc21)c1ccccc1 (stereo not drawn) | – | – | inactive
66 | CCOC(=O)N/N=C(\Cc1ccc([N+](=O)[O-])cc1)OCC | > 200 µM | > 200 µM | –

Row | SMILES | EC50 | IC50 | outcome
67 | CC(=O)/C(=C/n1ccc(=O)[nH]c1=S)C(=O)Nc1ccc(Cl)cc1 | > 200 µM | 155 µM | –
68 | N.N.N.N.N.N#Cc1nn[n-]n1.[Cl-].[Co+3] | > 813 µM | > 813 µM | –
69 | CCOC(=O)c1cnc2cc3cccccc3n2c1=O | – | – | inactive
70 | Cc1nn(C(=O)Cc2ccccc2)c2c1C(c1ccc(N(C)C)cc1)SC(N)=N2 (stereo not drawn) | 55 µM | > 200 µM | –
71 | CCCCNC(=O)CCN(C(=O)O)S(=O)(=O)c1ccc(NC(=O)c2ccccc2)cc1 | > 112 µM | > 112 µM | –
72 | Cc1ccc2c(c1)CC1(Cc3c(C)cccc3C1=O)C2=O (stereo not drawn) | > 200 µM | > 200 µM | –
73 | O=[N+]([O-])c1ccc2c(c1)c(OCc1ccccc1)nn2Cc1ccccc1 | > 200 µM | 95.5 µM | –
74 | CC(C(O)c1ccccc1)N(C)/N=N/c1nc2c([nH]1)c(=O)n(C)c(=O)n2C (stereo not drawn) | > 200 µM | 110 µM | –
75 | CN(C)C(=O)NC1(N(C)C)CC1 | > 200 µM | > 200 µM | –
76 | C=CCc1c(C(O)CNC(C)C)ccc(OC)c1OCc1ccccc1 (stereo not drawn) | > 200 µM | 30.2 µM | –
77 | SC[C@@H]1COC[C@H](CS)S1 | > 95.5 µM | > 95.5 µM | –
78 | c1ccc(/N=N/c2ccccn2)nc1 | > 200 µM | > 200 µM | –
79 | O=[N+]([O-])c1ccc2c([N+](=O)[O-])ccc3c2c1CC3 | > 200 µM | 21.9 µM | –
80 | O=C1NC2(NC(=O)C1=O)Nc1ccccc1S2 | > 28.8 µM | > 28.8 µM | –
81 | O=C1/C(=C/c2ccccc2)CCCC1CN1CCCCC1 (stereo not drawn) | > 200 µM | 0.676 µM | –
82 | O=C1OC(=O)C2=C1CCc1ccccc12 | – | – | inactive
83 | CCOC(=O)c1[nH]c2nc(SC)nc(Nc3ccccc3Cl)c2c1N | > 200 µM | 126 µM | –
84 | CCOC(=O)/C=C1\CCCn2c1ncc(C(=O)OCC)c2=O | > 200 µM | 3.63 µM | –
85 | NS(=O)(=O)c1ccc(NC(NC(=O)C(C(F)(F)F)C(F)(F)F)(C(F)(F)F)C(F)(F)F)cc1 | > 200 µM | > 200 µM | –
